This note sets out measurements from patent publication US20230143604A1, “QW DOSING OF GIP RECEPTOR AGONIST PEPTIDE COMPOUNDS AND USES THEREOF” (TAKEDA PHARMACEUTICAL COMPANY LIMITED, priority 2020, published 2023).

One series can be described thus: physchem. The method in brief: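 3 mg of peptide treated with 100 μL portions of 200 mM phosphate buffer pH 7.4, sonicating/vortexing up to 1 min, with further buffer added until fully dissolved. Solubility then quantified by HPLC.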
Another series relates to female beagle dogs. Briefly: PYY-1119-induced vomiting in dogs. To be noted: 3 nmol/kg s.c., 72 hours post-dose (lower line). It is filed as in vivo. Here is the method: The GIPR agonist peptide compounds of the present disclosure or vehicle (0.09% [w/v] Tween 80/10% DMSO/PBS) were administered subcutaneously (sc) at 3-10 nmol/kg to female beagle dogs (10 months old), followed by sc injections with Y2R agonist ((4-imidazolecarbonyl-Ser-D-Hyp-Iva-Pya(4)-Cha-Leu(Me)-Asn-Lys-Aib-Thr-Arg-Gln-Arg-Cha-NH2), […]), […]) at 1 hour or specified hours in the table postdose. Emetic episodes were counted for 2 hours after administration (by blinded analysis).

For a further series, the system named is C57BL/6J mice. Briefly: Oral glucose tolerance test (OGTT). It is filed as in vivo. To be noted: 3 nmol/kg s.c., 24 hours before glucose loading. An outline of the steps:
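Peptide or vehicle given s.c. at 0.1, 0.3, 3 or 10 nmol/kg (peptide-dependent), 24 h before oral 50% dextrose at 5 ml/kg unless stated otherwise. Blood glucose read at 0, 15, 30 and 60 min. % inhibition = (1−(AUC cpd−AUC naïve)/(AUC veh−AUC naïve))×100.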

The subject of the next series is Dogs. It is filed as in vivo. How it is done: Dogs are transferred to an observation cage (700 mm W×700 mm D×700 mm H [W×D×H], without food) on 1 day before each apomorphine challenge. The dogs are weighed by using an electronic balance then test peptide compounds and vehicle will be administrated via the subcutaneous route. Apomorphine is challenged at 8 hr after the administration and emetic events will be monitored for 1 h by video recording. The second apomorphine challenge will be 72 hr after the administration and emetic events will be recorded by the same protocol. Emesis symptoms are continuously recorded using a video camera and stored on a blue ray disc. Observation of symptoms include retching (a rhythmic contraction of the abdomen) and vomiting (vomiting behavior, including the elimination of vomitus or similar behavior). Besides, the combination of retching and vomiting is defined as emesis, and the number of episodes, latency (time elapsed from morphine administration until the onset of the first emesis symptom), duration (time elapsed between the onset of the first and final episodes of emesis), and frequency (number of animals showing emesis/number of experimental animals) of each of these symptoms is calculated. The latency in cases where emesis symptoms are not noted is taken as the maximum value (1 h for apomorphine challenge) at the end of observation. When the duration of the emesis symptoms is less than 1 min, the duration is recorded, for convenience, as 1 min.

A further series deals with T1, human GLP-1R (Homo sapiens, UniProt P43220).
T1 construct: HEK-293T cells overexpressing full-length human GLP-1R; FLAG (N); host or cells: HEK-293T
T1 sequence (P43220 24-463): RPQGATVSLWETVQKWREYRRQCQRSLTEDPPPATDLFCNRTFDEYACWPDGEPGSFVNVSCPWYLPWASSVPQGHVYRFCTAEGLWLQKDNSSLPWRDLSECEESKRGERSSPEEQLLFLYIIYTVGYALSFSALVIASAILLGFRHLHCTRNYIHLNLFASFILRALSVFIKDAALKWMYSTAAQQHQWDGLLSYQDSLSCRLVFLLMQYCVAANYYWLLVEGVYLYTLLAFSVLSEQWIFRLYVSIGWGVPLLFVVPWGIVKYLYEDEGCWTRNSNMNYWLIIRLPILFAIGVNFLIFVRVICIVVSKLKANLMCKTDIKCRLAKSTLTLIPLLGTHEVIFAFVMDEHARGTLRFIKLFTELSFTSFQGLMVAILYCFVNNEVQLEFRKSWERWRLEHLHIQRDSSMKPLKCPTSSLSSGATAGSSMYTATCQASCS
In words: Human GLP1R agonist activity, intracellular cAMP accumulation. It counts as cell-based. To be noted: HEK-293T cells overexpressing human GLP-1R, 1 hr, read-out: Human GLP1R cAMP EC50, HEK293T. An outline of the steps: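 Frozen assay-ready cells washed and resuspended at 4×10^5 cells/mL in Krebs Ringer buffer, then incubated with compound 1 hr at room temperature in the dark. cAMP read by HTRF (anti-cAMP antibody, d2-cAMP tracer). Normalised to 1 nm GLP-1 (100%) and DMSO (0%).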

Series [1] is described as follows: Pharmacokinetics in dog after IV and SC dosing. To be noted: in vivo, 3 nmol/kg. The method in brief: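 Dogs were dosed IV or SC at 1 mL/kg with peptide at 3 nmol/mL in 10% DMSO/0.09% Polysorbate/PBS pH 7.4. K2-EDTA plasma was sampled to 336 h, and peptide was quantified by LCMS to derive half-life.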

Like-named read-outs stand apart in the source and are kept apart here.

Usually solubility stands for the dissolved amount per volume that the medium holds. One may read the EC50 as the concentration giving half of the maximal effect. Take `CC[C@H](C)[C@H](NC(=O)[C@H](Cc1ccccc1)NC(=O)[C@@H](NC(=O)CNC(=O)[C@H](CCC(=O)O)NC(=O)C(C)(C)NC(=O)[C@H](Cc1ccc(O)cc1)NC)[C@@H](C)O)C(=O)N[C@@H](CO)C(=O)N[C@@H](CC(=O)O)C(=O)N[C@@H](Cc1ccc(O)cc1)C(=O)N[C@@H](CO)C(=O)N[C@H](C(=O)NC(C)(C)C(=O)N[C@@H](CCCCNC(=O)CNC(=O)CNC(=O)CNC(=O)CNC(=O)CNC(=O)CCCCCCCCCCCCCCCCC(=O)O)C(=O)N[C@@H](CC(=O)O)C(=O)N[C@@H](CCCNC(=N)N)C(=O)NC(C)(C)C(=O)N[C@@H](C)C(=O)N[C@@H](CCC(N)=O)C(=O)NC(C)(C)C(=O)N[C@@H](CC(=O)O)C(=O)N[C@@H](Cc1ccccc1)C(=O)N[C@H](C(=O)N[C@@H](CCC(=O)O)C(=O)N[C@@H](Cc1c[nH]c2ccccc12)C(=O)N[C@@H](CC(C)C)C(=O)N[C@@H](CC(C)C)C(=O)N[C@@H](C)C(=O)N[C@@H](CCC(N)=O)C(=O)N[C@@H](CCCNC(=N)N)C(=O)NCC(=O)O)C(C)C)[C@@H](C)CC` [Compound 108]: the solubility is at least 15 mg/mL in the series “physchem” (pH 7.4) and at least 60 mg/mL in “physchem” (pH 7.4, aqueous buffer). Moreover, the “Inhibition (%) of PYY-1119-induced emetic event” value in the series with female beagle dogs is given as 96% (3 nmol/kg). For the same compound, the “Oral Glucose Tolerance Test Percent decrease in blood glucose AUC (%) over 60 mins” value with C57BL/6J mice was 65% (3 nmol/kg). The “% inhibition of emetic events at doses (nmol/kg) shown in dog apomorphine model” value with Dogs (after 8 hrs (upper), 10 nmol/kg s.c.) was 50% (10 nmol/kg); with Dogs (after 72 hours (lower), 10 nmol/kg s.c.), 54% (10 nmol/kg). For the same compound, the EC50 at human GLP-1R was 0.0417 µM.

What is called half-life is the time needed for the level to fall by half in the phase considered. Low readings indicate fast loss, high ones slow loss. The MRT last is a mean duration of stay, worked out from the concentration-time curve. As to `CC[C@H](C)[C@H](NC(=O)[C@H](CO)NC(=O)[C@H](Cc1ccc(O)cc1)NC(=O)[C@H](CC(=O)O)NC(=O)[C@H](CO)NC(=O)[C@@H](NC(=O)[C@H](Cc1ccccc1)NC(=O)[C@@H](NC(=O)CNC(=O)[C@H](CCC(=O)O)NC(=O)C(C)(C)NC(=O)[C@H](Cc1ccc(O)cc1)NC)[C@@H](C)O)[C@@H](C)CC)C(=O)N[C@@H](C)C(=O)N[C@@H](CCCCNC(=O)CNC(=O)CNC(=O)CNC(=O)CNC(=O)CNC(=O)CCCCCCCCCCCCCCCCC(=O)O)C(=O)N[C@@H](CC(=O)O)C(=O)N[C@@H](CCCNC(=N)N)C(=O)NC(C)(C)C(=O)N[C@@H](C)C(=O)N[C@@H](CCC(N)=O)C(=O)NC(C)(C)C(=O)N[C@@H](CC(N)=O)C(=O)N[C@@H](Cc1ccccc1)C(=O)N[C@H](C(=O)N[C@@H](CC(N)=O)C(=O)N[C@@H](Cc1c[nH]c2ccccc12)C(=O)N[C@@H](CC(C)C)C(=O)N[C@@H](CC(C)C)C(=O)N[C@@H](C)C(=O)N[C@@H](CCC(N)=O)C(=O)N[C@@H](CO)C(=O)N1CCC[C@H]1C(=O)N[C@@H](CO)C(=O)N[C@@H](CO)C(=O)NCC(=O)N[C@@H](C)C(=O)N1CCC[C@H]1C(=O)N1CCC[C@H]1C(=O)N1CCC[C@H]1C(=O)N[C@@H](CO)C(=O)O)C(C)C` [Compound 45, Me-Y-Aib-E-G-T-F-I-S-D-Y-S-I-A-Km-D-R-Aib-A-Q-Aib-N-F-V-N-W-L-L-A-Q-S-P-S-S-G-A-P-P-P-S-OH], the solubility in “physchem” (pH 7.4) was at least 15 mg/mL; in the series “physchem” (pH 7.4, aqueous buffer) it was at least 60 mg/mL. In the series on female beagle dogs, the “Inhibition (%) of PYY-1119-induced emetic event” value is 90% (3 nmol/kg). In addition, the “% inhibition of emetic events at doses (nmol/kg) shown in dog apomorphine model” value in the series on Dogs (after 8 hrs (upper), 30 nmol/kg s.c.) is 70% (30 nmol/kg); with Dogs (after 72 hours (lower), 30 nmol/kg s.c.), 72% (30 nmol/kg). In series [1] (iv), this compound had a half-life of 62 h. In series [1] (sc), this compound displayed an MRT last of 125 h.
